Structures can show the parent of a compound that is named as a salt.
Biological target: Bek (Homo sapiens, UniProt P21802)
Assay: Inhibitory activity against Bek-autophosphorylation using ELISA method in OCUM-2MD3 cells
Assay type: cell-based
Conditions: 1 hr with compound, read-out: IC50 (concentration necessary for inhibiting 50% of Bek-phosphorylation)
Procedure, shortened: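 OCUM-2MD3 human scirrhous gastric cancer cells in 0.1% FCS were exposed to compound for 1 hr at 37° C, then lysed. Phospho-tyrosine proteins were captured with anti-phosphotyrosine antibody, probed with anti-Bek antibody and peroxidase read-out (A450). Positive control (1000 nM) set 0%, untreated 100%; IC50 from multi-level dilutions.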

Bek, sequence (P21802 431-767 limits assumed): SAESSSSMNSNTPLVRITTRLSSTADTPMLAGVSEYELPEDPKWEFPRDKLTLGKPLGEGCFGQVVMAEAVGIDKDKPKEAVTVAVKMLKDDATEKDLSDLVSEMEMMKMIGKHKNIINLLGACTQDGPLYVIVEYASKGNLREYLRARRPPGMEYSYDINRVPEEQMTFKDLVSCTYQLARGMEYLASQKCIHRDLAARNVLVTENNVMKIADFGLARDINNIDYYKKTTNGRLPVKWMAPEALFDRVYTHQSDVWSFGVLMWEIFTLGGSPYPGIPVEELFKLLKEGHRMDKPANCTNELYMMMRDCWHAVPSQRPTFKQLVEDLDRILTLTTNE

Row | Compound | IC50 [nM]
1 | COc1cc2c(Oc3ccc(Nc4ccc(C(C)(C)C)cc4)cc3F)ccnc2cc1OCCN(CCO)CCO [Compound 336, 2-[(2-{4-[4-(4-Tert-butyl-phenylamino)-2-fluoro-phenoxy]-6-methoxy-quinolin-7-yloxy}-ethyl)-(2-hydroxy-ethyl)-amino]-ethanol] | 53
2 | COc1cc2c(Oc3ccc(Nc4ccc(C(C)(C)C)cc4)c(Cl)c3)ccnc2cc1OCCN(CCO)CCO [Compound 337, 2-[(2-{4-[4-(4-Tert-butyl-phenylamino)-3-chloro-phenoxy]-6-methoxy-quinolin-7-yloxy}-ethyl)-(2-hydroxy-ethyl)-amino]-ethanol] | 252
3 | COc1cc2c(Oc3ccc(NC(=O)NCCC(C)(C)C)cc3Cl)ccnc2cc1OCCCN1CCC(O)CC1 [Compound 338, 1-(3-Chloro-4-{7-[3-(4-hydroxy-piperidin-1-yl)-propoxy]-6-methoxy-quinolin-4-yloxy}-phenyl)-3-(3,3-dimethyl-butyl)-urea] | 16.6
4 | COc1cc2c(Oc3ccc(NC(=O)NCCC(C)(C)C)cc3Cl)ccnc2cc1OCCCN1CCC(CO)CC1 [Compound 339, 1-(3-Chloro-4-{7-[3-(4-hydroxymethyl-piperidin-1-yl)-propoxy]-6-methoxy-quinolin-4-yloxy}-phenyl)-3-(3,3-dimethyl-butyl)-urea] | 16.4
5 | CCN(CCO)CCOc1cc2nccc(Oc3ccc(NC(=O)NCCC(C)(C)C)cc3)c2cc1OC [Compound 340, 1-(3,3-Dimethyl-butyl)-3-[4-(7-{2-[ethyl-(2-hydroxy-ethyl)-amino]-ethoxy}-6-methoxy-quinolin-4-yloxy)-phenyl]-urea] | 18.3
6 | CCN(CCO)CCOc1cc2nccc(Oc3ccc(NC(=O)NCCC(C)(C)C)c(F)c3)c2cc1OC [Compound 341, 1-(3,3-Dimethyl-butyl)-3-[4-(7-{2-[ethyl-(2-hydroxy-ethyl)-amino]-ethoxy}-6-methoxy-quinolin-4-yloxy)-2-fluoro-phenyl]-urea] | 28.9
7 | CCN(CCO)CCOc1cc2nccc(Oc3ccc(NC(=O)NCCC(C)(C)C)c(Cl)c3)c2cc1OC [Compound 342, 1-[2-Chloro-4-(7-{2-[ethyl-(2-hydroxy-ethyl)-amino]-ethoxy}-6-methoxy-quinolin-4-yloxy)-phenyl]-3-(3,3-dimethyl-butyl)-urea] | 11.6
8 | CCN(CCO)CCCOc1cc2nccc(Oc3ccc(NC(=O)NCCC(C)(C)C)cc3)c2cc1OC [Compound 343, 1-(3,3-Dimethyl-butyl)-3-[4-(7-{3-[ethyl-(2-hydroxy-ethyl)-amino]-propoxy}-6-methoxy-quinolin-4-yloxy)-phenyl]-urea] | < 10
9 | CCN(CCO)CCCOc1cc2nccc(Oc3ccc(NC(=O)NCCC(C)(C)C)c(F)c3)c2cc1OC [Compound 344, 1-(3,3-Dimethyl-butyl)-3-[4-(7-{3-[ethyl-(2-hydroxy-ethyl)-amino]-propoxy}-6-methoxy-quinolin-4-yloxy)-2-fluoro-phenyl]-urea] | < 10
10 | CCN(CCO)CCCOc1cc2nccc(Oc3ccc(NC(=O)NCCC(C)(C)C)c(Cl)c3)c2cc1OC [Compound 345, 1-[2-Chloro-4-(7-{3-[ethyl-(2-hydroxy-ethyl)-amino]-propoxy}-6-methoxy-quinolin-4-yloxy)-phenyl]-3-(3,3-dimethyl-butyl)-urea] | 9.8
11 | COc1cc2c(Oc3ccc(Nc4ccc(C(C)(C)C)cc4)cc3Cl)ccnc2cc1OCCN(CCO)CCO [Compound 346, 2-[(2-{4-[4-(4-Tert-butyl-phenylamino)-2-chloro-phenoxy]-6-methoxy-quinolin-7-yloxy}-ethyl)-(2-hydroxy-ethyl)-amino]-ethanol] | 294
12 | COc1cc2c(Oc3ccc(Nc4ccc(C(C)(C)C)cc4)cc3)ccnc2cc1OCCNCC1CCCO1 (stereo not shown) [Compound 347, N1-[4-(Tert-butyl)phenyl]-4-[(6-methoxy-7-{2-[(tetrahydro-2-furanylmethyl)amino]ethoxy}-4-quinolyl)oxy]aniline] | 354
13 | COc1cc2c(Oc3ccc(Nc4ccc(C(C)(C)C)cc4)cc3)ccnc2cc1OCCN(C)CCO [Compound 348, 2-[(2-{4-[4-(4-Tert-butyl-phenylamino)-phenoxy]-6-methoxy-quinolin-7-yloxy}-ethyl)-methyl-amino]-ethanol hydrochloride] | 186
14 | COc1cc2c(Oc3ccc(Nc4ccc(C(C)(C)C)cc4)cc3)ccnc2cc1OCCN(CCO)CCO [Compound 349, 2-[(2-{4-[4-(4-Tert-butyl-phenylamino)-phenoxy]-6-methoxy-quinolin-7-yloxy}-ethyl)-(2-hydroxy-ethyl)-amino]-ethanol hydrochloride] | 95.9
15 | COc1cc2c(Oc3ccc(Nc4ccc(C(C)(C)C)cc4)cc3)ccnc2cc1OCCNC1(CO)CCCC1 [Compound 350, [1-(2-{4-[4-(4-Tert-butyl-phenylamino)-phenoxy]-6-methoxy-quinolin-7-yloxy}-ethylamino)-cyclopenthyl]-methanol] | 334
16 | CCC(CO)(CO)NCCOc1cc2nccc(Oc3ccc(Nc4ccc(C(C)(C)C)cc4)cc3)c2cc1OC [Compound 351, 2-(2-{4-[4-(4-Tert-butyl-phenylamino)-phenoxy]-6-methoxy-quinolin-7-yloxy}-ethylamino)-2-ethyl-propan-1,3-diol] | 232

Row | Compound | IC50 [nM]
17 | COc1cc2c(Oc3ccc(Nc4ccc(C(C)(C)C)cc4)cc3)ccnc2cc1OCCN(CC(C)O)CC(C)O (stereo not shown) [Compound 352, 1-[(2-{4-[4-(4-Tert-butyl-phenylamino)-phenoxy]-6-methoxy-quinolin-7-yloxy}-ethyl)-(2-hydroxy-propyl)-amino]-propan-2-ol] | 54.7
18 | COc1cc2c(Oc3ccc(Nc4ccc(C(C)(C)C)cc4)cc3)ccnc2cc1OCCNC(C)CO (stereo not shown) [Compound 353, 2-(2-{4-[4-(4-Tert-butyl-phenylamino)-phenoxy]-6-methoxy-quinolin-7-yloxy}-ethylamino)-propan-1-ol] | 374
19 | CCC(CO)(CO)NCCOc1cc2nccc(Oc3ccc(NC(=O)NCCC(C)(C)C)cc3)c2cc1OC [Compound 354, 1-(4-{7-[2-(1,1-Bis-hydroxymethyl-propylamino)-ethoxy]-6-methoxy-quinolin-4-yloxy}-phenyl)-3-(3,3-dimethyl-butyl)-urea] | 38.4
20 | COc1cc2nccc(Oc3ccc(Nc4ccc(C(C)(C)C)cc4)cc3)c2cc1OCCN1CCC(CO)CC1 [Compound 355, [1-(2-{4-[4-(4-Tert-butyl-phenylamino)-phenoxy]-7-methoxy-quinolin-6-yloxy}-ethyl)-piperidin-4-yl]-methanol] | 403
21 | COc1cc2nccc(Oc3ccc(Nc4ccc(C(C)(C)C)cc4)cc3)c2cc1OCCNCCO [Compound 356, 2-(2-{4-[4-(4-Tert-butyl-phenylamino)-phenoxy]-7-methoxy-quinolin-6-yloxy}-ethylamino)-ethanol] | 347
22 | COc1cc2nccc(Oc3ccc(Nc4ccc(C(C)(C)C)cc4)cc3)c2cc1OCCN(C)CCO [Compound 357, 2-[(2-{4-[4-(4-Tert-butyl-phenylamino)-phenoxy]-7-methoxy-quinolin-6-yloxy}-ethyl)-methyl-amino]-ethanol] | 213
23 | COc1cc2nccc(Oc3ccc(Nc4ccc(C(C)(C)C)cc4)cc3)c2cc1OCCN(CCO)CCO [Compound 358, 2-[(2-{4-[4-(4-Tert-butyl-phenylamino)-phenoxy]-7-methoxy-quinolin-6-yloxy}-ethyl)-(2-hydroxy-ethyl)-amino]-ethanol] | 51.7
24 | COc1cc2c(Oc3ccc(NC(=O)NCCC(C)(C)C)cc3)ccnc2cc1OCCNC1(CO)CCCC1 [Compound 359, 1-(3,3-Dimethyl-butyl)-3-(4-{7-[2-(1-hydroxymethyl-cyclopenthylamino)-ethoxy]-6-methoxy-quinolin-4-yloxy}-phenyl)-urea] | 254
25 | COc1cc2c(Oc3ccc(NC(=O)NCCC(C)(C)C)cc3)ccnc2cc1OCCN(CC(C)O)CC(C)O (stereo not shown) [Compound 360, 1-[4-(7-{2-[Bis-(2-hydroxy-propyl)-amino]-ethoxy}-6-methoxy-quinolin-4-yloxy)-phenyl]-3-(3,3-dimethyl-butyl)-urea] | 19.5
26 | COc1cc2c(Oc3ccc(NC(=O)NCCC(C)(C)C)cc3)ccnc2cc1OCCNC(C)CO (stereo not shown) [Compound 361, 1-(3,3-Dimethyl-butyl)-3-(4-{7-[2-(2-hydroxy-1-methyl-ethylamino)-ethoxy]-6-methoxy-quinolin-4-yloxy}-phenyl)-urea] | 29.8
27 | COc1cc2c(Oc3ccc(NC(=O)NCCC(C)(C)C)cc3)ccnc2cc1OCCN(CCO)C1CCCCC1 [Compound 362, 1-[4-(7-{2-[Cyclohexyl-(2-hydroxy-ethyl)-amino]-ethoxy}-6-methoxy-quinolin-4-yloxy)-phenyl]-3-(3,3-dimethyl-butyl)-urea] | 49.2
28 | COCC(C)NCCOc1cc2nccc(Oc3ccc(Nc4ccc(C(C)(C)C)cc4)cc3)c2cc1OC (stereo not shown) [Compound 363, N1-[4-(Tert-butyl)phenyl]-4-[(6-methoxy-7-{2-[(2-methoxy-1-methylethyl)amino]ethoxy}-4-quinolyl)oxy]aniline] | 364
29 | COc1cc2c(Oc3ccc(Nc4ccc(C(C)(C)C)cc4)cc3)ccnc2cc1OCCN(CCO)C1CCCCC1 [Compound 364, 2-[(2-{4-[4-(4-Tert-butyl-phenylamino)-phenoxy]-6-methoxy-quinolin-7-yloxy}-ethyl)-cyclohexyl-amino]-ethanol] | 230
30 | COc1cc2c(Oc3ccc(Nc4ccc(C(C)(C)C)cc4)cc3)ccnc2cc1OCCN(CCO)Cc1ccccc1 [Compound 365, 2-[Benzyl-(2-{4-[4-(4-tert-butyl-phenylamino)-phenoxy]-6-methoxy-quinolin-7-yloxy}-ethyl)-amino]-ethanol] | 7130
31 | CCCN(CCO)CCOc1cc2nccc(Oc3ccc(Nc4ccc(C(C)(C)C)cc4)cc3)c2cc1OC [Compound 366, 2-[(2-{4-[4-(4-Tert-butyl-phenylamino)-phenoxy]-6-methoxy-quinolin-7-yloxy}-ethyl)-propyl-amino]-ethanol] | 257

Source: patent publication US7495104B2, “Quinoline or quinazoline derivatives inhibiting auto-phosphorylation of fibroblast growth factor receptors” (Kirin Beer Kabushiki Kaisha, priority 2001, dated 2009)
